In patent US10617701B2, “Nutritional compositions containing phosphatidylethanolamine, sphingomyelin and docosahexaenoic acid” (Mead Johnson Nutrition Company, priority 2015, dated 2020):

What was measured:
[1] = tested on: embryonic mouse cortical cells; experiment: Functional neuronal maturation of cortical networks on microelectrode arrays (MEA recording, chronic treatment); format: cell-based; details: for acute effect on neuronal network activity in vitro: cortical networks on MEAs
Protocol: Cortical cells were grown on multi-well microelectrode arrays (MEAs) and treated with 10 different experimental series, including different combinations of test agents (PE, SM, LF and DHA) and the activity was recoded at 4 different time points during the 4 weeks of functional neuronal maturation Cells growing on glass slides were treated in parallel for morphological and cell population analysis. These experiments aimed to elucidate whether the test compounds affect the functional and morphological neuronal maturation […] (see FIG. 1).
All experiments were performed according to the standard operating protocols (SOPs): “SOP Preparation Frontal Cortex Mouse—Serum,” “SOP Solutions for Neuronal Cell Culture,” “SOP Cleaning and Substrate Preparations of MEAs,” “SOP Feeding neuronal cell culture,” “SOP Cell culture preparation MEAs,” “SOP Plexon Recording,” “SOP Plexon Data Analysis.”
Microelectrode Array Neurochips: THE MEA neurochips were provided by the Center for Network Neuroscience (CNNS) at the University of North Texas. These 5×5 cm^2 glass chips have a dual recording matrix with 32 passive electrodes per matrix and indium tin oxide conductors. The hydrophobic insulation material surface was activated by a brief butane flame pulse through a stainless steel mask. Thus, cell attachment on a confined adhesive region (5 mm diameter centered on the electrode array) is ensured. The activated surface regions were coated with poly-D-lysine (25 microgram/mL; 30-70 kD) and incubated overnight. […]
Primary cell culture for MEA recordings: In brief, frontal cortex tissue was harvested from embryonic day […] NMRI mice. […] Cultures on MEAs were incubated at 37° C. in a 10% CO2 atmosphere until ready for use, which usually is four weeks to three months after seeding. […]
Multichannel Recording: After establishing a stable activity pattern after 4 weeks, the neuronal networks on MEA chips are employed for substance testing. […] The signals routinely recorded by these neurochips are located in a range of 15-1800 […] . […]

[2] = tested on: embryonic mouse cortical cells; experiment: Immunocytochemistry / fluorescence image analysis of neuronal network morphology (neuron number, % neurons, synaptic density); format: cell-based; details: chronic treatment over 4 weeks
Protocol: Primary Cell culture for immunocytochemistry and Fluorescence staining: The chronically treated cultures were grown on 24-well plates on 13 mm glass cover slides and cultured with PNGM medium including 5% FCS and gentamycin+ampicillin. The cells were treated 2× per week during ⅓ medium exchange. The complete concentration of phospholipids was replenished every time.
Immunocytochemistry and Fluorescence staining: These 24 well-plate cultures were analyzed by immunocytochemistry, fluorescence microscopy and semiautomatic quantitative image analysis at 7, 14, 21, and 28 days. […] Cortical networks were embedded with Prolong anti-fade gold (Invitrogen, Darmstadt, Germany) and images acquired with an upright fluorescence microscope (Nikon Eclipse TE200, NikonAG, Tokyo, Japan).
Image analysis: These images were analyzed by semi-automatic image quantification tools (MS Excel macro-based in house analyses; ImageJ, Rawak Software, NIH, USA). […]
The repeated treatment with LF+PE+SM+DHA affects development of neuronal network morphology: The recorded networks were fixed after the final 28 div recording and immunostained for neuronal markers. Images were taken and the cell neuronal numbers quantified by semi-automatic image analyses.

Substance	acute effect on neuronal network activity in vitro [1]	developmental halt at later stages ([1]; repeated treatment 2x per week, DHA 20 μM, PE 100 nM, LF 300 nM, SM 100 nM, recorded at 7-10, 14, 21 and 28 div, FIG. 2)	synaptic density [2]
phosphatidylethanolamine [PE]	acutely affect neuronal network activity		
sphingomyelin [SM]	acutely affect neuronal network activity	developmental halt at later stages	able to increase the synaptic density
